This is an account of results in PubChem BioAssay (NCI).

What all share (experiment): growth of human tumour cells (NCI), 48 h
For assay [1], the system named is NCI-H522 lung.
For assay [2], the system named is SK-MEL-5 melanoma.
In assay [3] the test system is SNB-75 CNS.
The subject of assay [4] is SF-539 CNS.
Assay [5] deals with 786-0 renal.
The subject of assay [6] is U251 CNS.
The subject of assay [7] is IGROV1 ovarian.
Assay [8] deals with A498 renal.
The test system of assay [9] is EKVX NSCLC.
In assay [10] the test system is NCI-H460 lung.

Each structure is given as a SMILES string.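 Exposure lasted 48 hours, with cells grown in 96-well plates and compounds tested at five concentrations. GI50 marks 50% less growth. At the TGI there is no net growth.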 Some results are limits rather than exact numbers.

Consider `CC1=C(C(=S)Nc2ccc(Cl)c(C(=O)OC(C)C)c2)SCCO1`, for which the TGI in assay [1] was 44.3 µM; in [2] it was 30.8 µM; in assay [3], 43.7 µM; in assay [4], 38.4 µM; in [5], 30.2 µM; in assay [6], 36.2 µM. In addition, the TGI in [7] is 33.1 µM; in [8] it was 30.7 µM; in assay [9] it was 54.4 µM; in assay [10], 44.6 µM.
As to `O=C(O)CCCCCNCc1cc2cc3c(cc2c2cc(OCc4ccccc4)ccc12)OCO3`, the GI50 is 1.76 µM in assay [1]; 1.65 µM in assay [2]; 2.96 µM in assay [3]; 1.9 µM in assay [4]; 1.68 µM in assay [5]; 1.73 µM in assay [6]. The GI50 in assay [7] was 2.96 µM; in assay [8], 3.17 µM; in assay [9], 4.01 µM; in assay [10], 1.7 µM. Also, the TGI was determined as 3.45 µM in assay [1]; 3.3 µM in [2]; 8.81 µM in assay [3]; 3.62 µM in [4]; 3.25 µM in [5]; 3.28 µM in [6]. In addition, the TGI in assay [7] is 10.1 µM; in assay [8], 13.2 µM; in [9] it was 17.9 µM; in assay [10] it was 3.33 µM.
As to `O=C1c2ccccc2C(=O)c2c1ccc1c3ccccc3n(-c3ccccc3)c21`, the TGI in assay [1] was 32.4 µM; in assay [2], 29.9 µM; in assay [3], 44.9 µM; in assay [4] it was 43.6 µM; in assay [5], 52.4 µM; in [6] it was more than 100 µM. The TGI in assay [7] came out at 41 µM; in assay [8], 71.9 µM; in assay [9], 56 µM; in assay [10] it was 63.8 µM.
In the case of `CC1CCc2c(C(=O)Nc3ncc(Cc4cccc([N+](=O)[O-])c4)s3)csc2C1` (stereo not given), the GI50 in assay [1] was 0.387 µM; in assay [2] it was 0.476 µM; in assay [3], 0.369 µM; in [4], 0.548 µM; in [5], 1.18 µM; in assay [6], 0.523 µM. Moreover, the GI50 in [7] is 0.753 µM; in [8] it was 0.267 µM; in assay [9], 1.11 µM; in assay [10] it was 0.491 µM. The TGI was more than 100 µM in assay [2]; 1.66 µM in assay [3]; 1.93 µM in [4]; more than 100 µM in [5]; more than 100 µM in [6]; more than 100 µM in assay [7]. The TGI is 0.864 µM in assay [8], more than 100 µM in [9] and more than 100 µM in assay [10].
For `C=C1C(=O)C23C(O)CC4C(C)(C)CCC(O)C4(C)C2CC(OC(C)=O)C1[C@H]3O` (stereo not given in full), the TGI in assay [1] was determined as 0.638 µM; in [3] it was 22.7 µM; in [4], 9.45 µM; in assay [5], 6.82 µM; in assay [6], 22.8 µM; in assay [8], 30.9 µM. For the same compound, the TGI in [9] is 16.8 µM; in assay [10], 6.65 µM.
Regarding `CN1CCN(Cc2ccc(NC(=O)c3cncc(C#Cc4c(N)ncc5ccccc45)c3)cc2C(F)(F)F)CC1`, the GI50 in assay [1] was 0.681 µM; in assay [2], 0.719 µM; in assay [3], 0.872 µM; in assay [4] it was 0.532 µM; in assay [5], 0.89 µM; in [6], 0.686 µM. The GI50 in [7] was 0.373 µM; in assay [8], 0.676 µM; in assay [9] it was 0.572 µM; in [10], 0.344 µM. The TGI in assay [1] was found to be 1.53 µM; in [2] it was 1.38 µM; in assay [3] it was 1.61 µM; in assay [4], 1.13 µM; in assay [5], 1.66 µM; in assay [6], 1.41 µM. In addition, the TGI in assay [7] worked out at 1.2 µM; in [8], 1.35 µM; in assay [9], 1.26 µM; in assay [10] it was 1.04 µM.
Take `Nc1nc(N)c(CCCCc2ccc([N+](=O)[O-])cc2)c(N)n1`: the TGI in [1], in [2], in [3], in assay [4], in assay [5] and in [6] was more than 100 µM in each case. Also, the TGI in assay [7], in assay [8], in assay [9] and in assay [10] was more than 100 µM throughout.
`CNC(=O)c1sc(-n2cnc3cc(OC)c(OC)cc32)cc1OCc1ccccc1C(F)(F)F`: the GI50 in [1] was more than 25 µM; in assay [2], more than 25 µM; in [3] it was more than 15.8 µM; in [4], more than 25 µM; in assay [5], more than 25 µM; in assay [6], more than 25 µM. The GI50 was more than 25 µM in assay [7], 1.39 µM in assay [8], more than 25 µM in assay [9] and more than 25 µM in [10]. Also, the TGI in assay [1], in [2], in assay [3], in [4], in assay [5] and in assay [6] was more than 25 µM in each case. Besides, the TGI was more than 25 µM in assay [7], more than 24 µM in [8], more than 25 µM in [9] and more than 25 µM in assay [10].
In the case of `CCN(CC)c1ccc(N=Nc2ccc(-c3nc4cccnc4s3)cc2)cc1`, the TGI is more than 100 µM in [1]; more than 100 µM in assay [2]; 98.9 µM in [3]; more than 100 µM in assay [5]; more than 100 µM in assay [6]; more than 100 µM in assay [7]. The TGI in assay [8], in [9] and in assay [10] was more than 100 µM throughout.
Turning to `O=C(CC1(O)C(=O)Nc2ccccc21)c1cccc(O)c1` (stereo not given), the TGI in [1], in assay [2], in assay [3], in assay [4], in assay [5] and in assay [7] was more than 100 µM in each case. Also, the TGI in [8], in assay [9] and in assay [10] was more than 100 µM in each case.
